Data published in ChEMBL document CHEMBL1201862, “PubChem BioAssay data set” (2004).
Activity calls are given as the source filed them.

How the values were obtained:
[1] = molecular target: FAD-linked sulfhydryl oxidase ALR (Homo sapiens, UniProt P55789); test: inhibitors of human ALR sulfhydryl oxidase, dose response, biochemical, H2O2 detection, luminescence, cherry-pick (AID 493248)
H9c2 = test: cells; assay type: functional, cell-based; settings: Rattus norvegicus, H9c2, Myocardium;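 note: confirmatory concentration-response retest of ultra-high-throughput screening hits for modulation of myocardial damage; cell death induced by hydrogen peroxide oxidative stress; compound pretreatment for 60 min then peroxide exposure for 2 h; potency is for protecting the cells against peroxide damage rather than for killing them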
[2] = inhibitors of firefly luciferase expression or activity, dose response, H4 neuroglioma cells, luminescence (AID 1990); assay type: functional, cell-based
[3] = Luminescence Cell-Based Dose Response HTS to Identify Inhibitors of 5'UTR Stem-Loop Driven Prion Protein mRNA Translation in H4 Neuroglioblastoma Cells. [Related pubchem assays: 1827 (Project Summary), 1813 (Primary HTS)]; assay type: functional
[4] = inhibitors of SNCA 5'UTR-driven reporter translation, confirmation, H4 neuroglioma cells, luminescence (AID 1988); assay type: functional, cell-based
INS1 = test: beta cell apoptosis inhibitors, cytokine rescue, dose response, luminescence, retest (AID 449756); assay type: functional, cell-based; settings: Rattus norvegicus;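 note: cell death triggered by IL-1 beta plus TNF-alpha plus IFN-gamma mixture; protective hits raise ATP signal compared with cytokine alone wells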
[5] = Luminescence Cell-Based Dose Retest to Confirm Inhibitors of Cancer Stem Cells. [Related pubchem assays (depositor defined):AID2717, AID2721]; assay type: functional; settings: Homo sapiens
[6] = inhibitors of intracellular T. cruzi replication, confirmation, NIH3T3 host cells, beta-gal luminescence (AID 2044); assay type: functional, cell-based;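 note: intracellular parasites grown in NIH/3T3 mouse fibroblasts as host cells; luminescent beta-galactosidase reporter signal from transgenic T. cruzi replicating inside host cells; inhibitors lower the luminescence signal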
[7] = cytotoxicity toward NIH3T3 fibroblasts, dose response, counter-screen, cell-based, ATP luminescence, mouse fibroblasts (AID 2010); assay type: functional;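 note: cells exposed to compound for about 90 hours before reading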
Cytochrome P450 2D6 = Cytochrome P450 2D6 (Homo sapiens, UniProt P10635);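 note: CYP2D6 member of a cytochrome P450 panel assay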
Sequence of Cytochrome P450 2D6 (P10635 whole entry): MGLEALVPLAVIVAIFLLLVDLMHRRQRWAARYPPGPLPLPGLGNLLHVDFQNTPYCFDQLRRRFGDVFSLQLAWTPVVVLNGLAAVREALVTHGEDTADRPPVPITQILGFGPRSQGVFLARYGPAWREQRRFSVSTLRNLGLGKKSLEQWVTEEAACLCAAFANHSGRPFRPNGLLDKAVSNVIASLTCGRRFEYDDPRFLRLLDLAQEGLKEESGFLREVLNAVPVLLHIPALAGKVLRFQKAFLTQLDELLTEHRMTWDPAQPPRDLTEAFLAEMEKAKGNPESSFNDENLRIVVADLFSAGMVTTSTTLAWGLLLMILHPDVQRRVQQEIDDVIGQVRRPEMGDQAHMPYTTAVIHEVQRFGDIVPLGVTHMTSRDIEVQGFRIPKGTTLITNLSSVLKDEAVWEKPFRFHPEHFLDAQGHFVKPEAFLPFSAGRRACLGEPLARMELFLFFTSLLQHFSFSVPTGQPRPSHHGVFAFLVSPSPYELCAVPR

Cytochrome P450 1A2 = molecular target: T1, Cytochrome P450 1A2 (Homo sapiens, UniProt P05177);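 note: PubChem cytochrome P450 panel assay, CYP1A2 panel member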
T1 sequence (P05177 whole entry): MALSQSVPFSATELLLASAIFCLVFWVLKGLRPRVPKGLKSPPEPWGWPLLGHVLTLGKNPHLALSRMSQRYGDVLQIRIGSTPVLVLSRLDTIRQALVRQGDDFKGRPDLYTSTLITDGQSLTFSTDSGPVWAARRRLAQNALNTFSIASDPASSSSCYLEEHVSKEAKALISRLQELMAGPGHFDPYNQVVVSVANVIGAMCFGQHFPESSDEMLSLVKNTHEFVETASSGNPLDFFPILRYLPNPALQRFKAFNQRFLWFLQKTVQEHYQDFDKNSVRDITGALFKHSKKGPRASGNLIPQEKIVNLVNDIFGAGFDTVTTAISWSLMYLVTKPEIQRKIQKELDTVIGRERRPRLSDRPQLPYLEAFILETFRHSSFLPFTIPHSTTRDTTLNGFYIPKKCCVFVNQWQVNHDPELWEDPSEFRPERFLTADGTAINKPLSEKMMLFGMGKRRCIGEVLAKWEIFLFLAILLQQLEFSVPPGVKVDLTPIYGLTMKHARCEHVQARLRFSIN

Cytochrome P450 2C9 = Cytochrome P450 2C9 (Homo sapiens, UniProt P11712)
Sequence of Cytochrome P450 2C9 (P11712 whole entry): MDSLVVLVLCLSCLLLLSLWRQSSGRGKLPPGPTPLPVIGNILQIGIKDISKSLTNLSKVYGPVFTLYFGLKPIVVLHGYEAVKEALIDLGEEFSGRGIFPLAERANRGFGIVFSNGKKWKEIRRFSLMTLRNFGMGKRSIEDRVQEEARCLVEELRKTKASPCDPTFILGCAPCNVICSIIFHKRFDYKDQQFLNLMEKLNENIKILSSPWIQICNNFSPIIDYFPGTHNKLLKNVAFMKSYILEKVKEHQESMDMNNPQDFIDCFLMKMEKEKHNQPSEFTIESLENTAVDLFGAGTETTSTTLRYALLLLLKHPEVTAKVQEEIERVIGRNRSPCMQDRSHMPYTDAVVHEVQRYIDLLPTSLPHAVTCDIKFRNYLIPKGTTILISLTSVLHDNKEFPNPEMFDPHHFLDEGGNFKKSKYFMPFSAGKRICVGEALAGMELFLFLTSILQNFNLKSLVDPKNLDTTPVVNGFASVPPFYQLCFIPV

[8] = tested on: Streptococcus sp. 'group A'; test: growth inhibition of control SK(-) GAS strain, dose response, counter-screen for streptokinase expression inhibitor project, luminescence, kanamycin, BacTiterGlo, confirmation (AID 1900); assay type: functional, organism-based
Streptokinase A = molecular target: T2, Streptokinase A (Streptococcus pyogenes serotype M1, UniProt P10520); test: S. pyogenes streptokinase expression inhibitors, potency, dose response, plasminogen activation absorbance, OD405 (AID 1914); assay type: functional, Streptococcus pyogenes M1 GAS;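 note: secreted streptokinase activity via plasminogen activation per viability signal from cell pellet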
T2 sequence (P10520 whole entry): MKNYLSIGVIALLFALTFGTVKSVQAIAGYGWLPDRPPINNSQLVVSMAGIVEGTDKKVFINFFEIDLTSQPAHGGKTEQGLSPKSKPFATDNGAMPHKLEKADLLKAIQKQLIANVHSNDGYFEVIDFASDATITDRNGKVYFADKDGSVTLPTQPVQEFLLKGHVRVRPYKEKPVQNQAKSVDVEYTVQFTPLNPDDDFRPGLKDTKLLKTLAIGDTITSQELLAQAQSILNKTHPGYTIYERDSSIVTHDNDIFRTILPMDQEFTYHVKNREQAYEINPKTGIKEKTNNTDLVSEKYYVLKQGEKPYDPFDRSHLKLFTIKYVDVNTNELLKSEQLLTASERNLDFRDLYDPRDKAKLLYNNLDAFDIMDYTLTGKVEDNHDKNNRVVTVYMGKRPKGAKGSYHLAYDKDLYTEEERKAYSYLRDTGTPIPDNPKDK

Streptococcus = test: Group A Streptococcus viability loss, dose response, counter-screen for streptokinase expression inhibitor project, luminescence, BacTiterGlo (AID 1915); assay type: functional, organism-based;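 note: potency for reduction of bacterial viability or growth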
Cytochrome P450 3A4 = Cytochrome P450 3A4 (Homo sapiens, UniProt P08684);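 note: CYP3A4 tested as one member of a cytochrome P450 panel screen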
Sequence of Cytochrome P450 3A4 (P08684 whole entry): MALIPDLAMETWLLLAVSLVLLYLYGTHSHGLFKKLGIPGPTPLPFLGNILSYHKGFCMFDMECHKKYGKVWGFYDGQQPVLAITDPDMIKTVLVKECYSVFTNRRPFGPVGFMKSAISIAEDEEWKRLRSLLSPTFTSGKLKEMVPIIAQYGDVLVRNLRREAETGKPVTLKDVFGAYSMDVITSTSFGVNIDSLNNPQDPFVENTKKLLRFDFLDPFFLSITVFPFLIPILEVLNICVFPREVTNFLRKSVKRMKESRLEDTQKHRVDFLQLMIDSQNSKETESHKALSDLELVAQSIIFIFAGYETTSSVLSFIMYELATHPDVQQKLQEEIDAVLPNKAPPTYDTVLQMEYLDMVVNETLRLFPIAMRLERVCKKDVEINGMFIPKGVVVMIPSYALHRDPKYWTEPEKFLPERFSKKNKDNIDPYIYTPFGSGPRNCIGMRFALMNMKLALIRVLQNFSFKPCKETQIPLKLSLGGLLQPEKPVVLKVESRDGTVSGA

Sequence of FAD-linked sulfhydryl oxidase ALR (P55789 whole entry): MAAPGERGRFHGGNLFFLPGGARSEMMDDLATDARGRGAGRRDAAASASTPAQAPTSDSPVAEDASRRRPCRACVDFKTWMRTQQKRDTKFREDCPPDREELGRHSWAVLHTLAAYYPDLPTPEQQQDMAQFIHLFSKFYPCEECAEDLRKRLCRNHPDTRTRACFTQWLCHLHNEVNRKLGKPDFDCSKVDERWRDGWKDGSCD

COc1cc(/C=N/NC(=O)C2C3CCCCC32C)cc(Br)c1O (configuration not stated)
AC50 [1]: 0.272 µM (active)

COc1ccc(-c2cc(C(=O)Nc3ccccc3N3CCOCC3)c3ccccc3n2)cc1OC
IC50 (H9c2): > 79 µM (inactive)

Cn1c(-c2ccc3nc(N)sc3c2)nc2cc(N)ccc21
AC50 [1]: 0.384 µM (active)

CCOC(=O)c1[nH]c2ccccc2c1NC(=O)c1ccc(S(=O)(=O)N2CCCCC2)cc1
EC50 [2]: 18.7 µM (active) | EC50 [3]: > 120 µM (not active) | EC50 [4]: 83.1 µM (active)

COc1ccc(CCNC(=O)c2cc3c(=O)n4cccc(C)c4nc3n(Cc3ccco3)c2=N)cc1OC
AC50 (INS1): 8.24 µM (active)

CCN1CCN(c2cc3nc(C)n(Cc4ccccc4)c(=O)c3cc2NC(=O)c2ccccc2F)CC1
EC50 [2]: 8.04 µM (active) | EC50 [3]: 8.79 µM (active) | EC50 [4]: 8.28 µM (active)

CCC(C)(C)n1nnnc1CN(Cc1cccs1)Cc1cc2cc(OC)ccc2nc1O
EC50 [2]: 30.6 µM (active) | EC50 [3]: > 120 µM (not active) | EC50 [4]: > 120 µM (not active)

CC(C)(C)c1ccc(NC(=O)N2CCCN(c3c(Cl)cncc3Cl)CC2)cc1
AC50 [5]: 0.601 µM (active)

N#Cc1c(-c2ccco2)cc(-c2ccccn2)nc1N
IC50 (H9c2): 14.3 µM (active)

O=C(NCC(c1cccnc1)N1CCN(c2ccccc2)CC1)C1CCCCC1 (configuration not stated)
AC50 [1]: 19.4 µM (active)

CCC[N+]1(CC#CCC(c2ccccc2)c2ccccc2)CCCCC1
EC50 [6]: 0.767 µM (active) | EC50 [7]: > 60 µM (not active) | AC50 (INS1): 1.67 µM (active)

O=C(NCCNS(=O)(=O)c1ccccc1Cl)c1cc(OCC(F)(F)F)ccc1OCC(F)(F)F
AC50 (Cytochrome P450 2D6): 22.4 µM (inconclusive) | AC50 (Cytochrome P450 1A2): 31.6 µM (inconclusive) | AC50 (Cytochrome P450 2C9): 12.6 µM (inconclusive)

Cn1c(=O)n(CCc2ccccc2)c(=O)c2c1nc1n2CCN1Cc1ccco1
IC50 (H9c2): 10.5 µM (active)

CCN(c1ccc(NC(=O)COC(=O)c2ccc([N+](=O)[O-])o2)cc1)C(C)C
IC50 (H9c2): > 79 µM (inactive)

Nc1nc(OCC2CCCCC2)c2nc[nH]c2n1
EC50 [2]: 16.5 µM (active) | EC50 [3]: 15.8 µM (active) | EC50 [4]: 13.7 µM (active)

CC(C)c1cc(-c2cc(-c3ccccc3)on2)nc(NC2CCCC2)n1
AC50 [5]: 10.1 µM (active)

Cn1c(=O)[nH]c(=O)c2c1nc(N1CCC(Cc3ccccc3)CC1)n2Cc1ccccc1
EC50 [2]: 19.4 µM (active) | EC50 [8]: 4.39 µM (active) | EC50 [3]: > 120 µM (not active) | EC50 [4]: 56.4 µM (active) | EC50 (Streptokinase A): 18 µM (active) | EC50 (Streptococcus): > 150 µM (not active)

Cc1nc2cncnc2n(-c2ccccc2)c1=O
AC50 (Cytochrome P450 1A2): 10 µM (inconclusive) | AC50 (Cytochrome P450 3A4): 12.6 µM (inconclusive) | AC50 (Cytochrome P450 2C9): 39.8 µM (inconclusive)

CCN(CC)c1ccc(/C=N/NC(=O)c2cccc(N3CCCC3=O)c2)cc1
AC50 [1]: 2.14 µM (active)

Cc1c(C(=O)NCCCN2CCCCC2)oc2ccc3c(c12)C(O)CC1(CCCCC1)O3 (configuration not stated)
EC50 [2]: > 120 µM (not active) | EC50 [3]: > 120 µM (not active) | EC50 [4]: > 120 µM (not active)

CC(=O)Oc1ccc(C(=O)Nc2ccc(C3(C#N)CCCC3)cc2)cc1
AC50 [5]: 1.83 µM (active)
